Holding throughout (experiment): Test E greenhouse herbicide test, pre- and postemergence
Common to all, as to assay type: in vivo
Holding throughout (conditions): Postemergence

In test [1] the test system is Italian ryegrass (Lolium multiflorum). The method in brief:
(§1)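 Pre- and postemergence sprays, same solvent–surfactant formulation. Substrate: silt loam (pre), peat-based mix (post, 1–4 leaf, 2–18 cm). Readout: visual control rating 0–100 against controls at 14–21 d.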

The subject of test [2] is dayflower (Virginia (VA) dayflower, Commelina virginica). The method in brief: as §1
The subject of test [3] is horseweed (Conyza canadensis). The method in brief: as §1
Test [4] concerns pigweed, palmer (palmer pigweed, Amaranthus palmeri). The method in brief: as §1
Test [5] concerns wild poinsettia (Euphorbia heterophylla). The method in brief: as §1
The mark [6] stands for this setting: 62 g ai/ha, scale 0 to 100 (0 no effect, 100 complete control).
[7] abbreviates: 125 g ai/ha, scale 0 to 100 (0 no effect, 100 complete control).
Where [8] appears, read: 16 g ai/ha, visual, scale 0 no effect to 100 complete control.
Setting [9] is: 31 g ai/ha, visual, scale 0 no effect to 100 complete control.
Where [10] appears, read: 250 g ai/ha, scale 0 to 100 (0 no effect, 100 complete control).

Molecules are shown by their SMILES.

Turning to `CC(=O)Oc1c(C)nn(C)c(=O)c1-c1c(C)cc(C)c2ccccc12` [Compound 99], the “Plant response rating, Ryegrass, Italian” value in test [1] (setting [6]) worked out at 70; in test [1] (setting [7]) it was 80; in test [1] (setting [8]) it was 40; in test [1] (setting [9]), 50. Moreover, the “Plant response rating, Dayflower, VA” value came out at 70 in test [2] (setting [6]), 75 in test [2] (setting [7]), 40 in test [2] (setting [8]) and 60 in test [2] (setting [9]). For the same compound, the “Plant response rating, Horseweed” value in test [3] (setting [6]) was 60; in test [3] (setting [7]) it was 75; in test [3] (setting [8]), 40; in test [3] (setting [9]), 50. Moreover, the “Plant response rating, Pigweed, Palmer” value in test [4] (setting [6]) came to 30; in test [4] (setting [7]), 50; in test [4] (setting [8]) it was 5; in test [4] (setting [9]), 10. For the same compound, the “Plant response rating, Poinsettia, Wild” value is recorded as 40 in test [5] (setting [6]), 50 in test [5] (setting [7]), 35 in test [5] (setting [8]) and 30 in test [5] (setting [9]).
With `Cc1nn(C)c(=O)c(-c2cccc3ccc(Br)cc23)c1O` [Compound 126], the “Plant response rating, Ryegrass, Italian” value is on record as 80 in test [1] (setting [6]), 85 in test [1] (setting [7]), 90 in test [1] (setting [10]) and 70 in test [1] (setting [9]). For the same compound, the “Plant response rating, Dayflower, VA” value in test [2] (setting [6]) came to 20; in test [2] (setting [7]), 50; in test [2] (setting [10]), 50; in test [2] (setting [9]) it was 0. Moreover, the “Plant response rating, Horseweed” value is 75 in test [3] (setting [6]), 85 in test [3] (setting [7]), 80 in test [3] (setting [10]) and 70 in test [3] (setting [9]). For the same compound, the “Plant response rating, Pigweed, Palmer” value was found to be 50 in test [4] (setting [6]), 50 in test [4] (setting [7]), 80 in test [4] (setting [10]) and 40 in test [4] (setting [9]). Also, the “Plant response rating, Poinsettia, Wild” value in test [5] (setting [6]) is on record as 20; in test [5] (setting [7]) it was 50; in test [5] (setting [10]) it was 50; in test [5] (setting [9]), 30.

The values are drawn from patent publication US10597388B2, “Pyridazinone herbicides” (FMC CORPORATION, priority 2014, dated 2020).
